From PMC4778717 (ChemMedChem, 2015)
Converted amounts (≈) assume the structure as drawn.

Tests used:
E. coli NR698 = test: Bacteriostatic effect; type: cell-based; settings: for MIC: Escherichia coli, NR698, 24 h, read-out: MIC, E. coli NR698
S. aureus 6538 = test: Bacteriostatic effect; type: cell-based; settings: for MIC: Staphylococcus aureus, 6538, 24 h, read-out: MIC, S. aureus 6538
EcSecAN68 = EcSecAN68 (Escherichia coli, UniProt P10408); test: biochemical; design: species or system E. coli
S. aureus Mu50 = test: Bacteriostatic effect; type: cell-based

Chain of EcSecAN68 (P10408 1-610): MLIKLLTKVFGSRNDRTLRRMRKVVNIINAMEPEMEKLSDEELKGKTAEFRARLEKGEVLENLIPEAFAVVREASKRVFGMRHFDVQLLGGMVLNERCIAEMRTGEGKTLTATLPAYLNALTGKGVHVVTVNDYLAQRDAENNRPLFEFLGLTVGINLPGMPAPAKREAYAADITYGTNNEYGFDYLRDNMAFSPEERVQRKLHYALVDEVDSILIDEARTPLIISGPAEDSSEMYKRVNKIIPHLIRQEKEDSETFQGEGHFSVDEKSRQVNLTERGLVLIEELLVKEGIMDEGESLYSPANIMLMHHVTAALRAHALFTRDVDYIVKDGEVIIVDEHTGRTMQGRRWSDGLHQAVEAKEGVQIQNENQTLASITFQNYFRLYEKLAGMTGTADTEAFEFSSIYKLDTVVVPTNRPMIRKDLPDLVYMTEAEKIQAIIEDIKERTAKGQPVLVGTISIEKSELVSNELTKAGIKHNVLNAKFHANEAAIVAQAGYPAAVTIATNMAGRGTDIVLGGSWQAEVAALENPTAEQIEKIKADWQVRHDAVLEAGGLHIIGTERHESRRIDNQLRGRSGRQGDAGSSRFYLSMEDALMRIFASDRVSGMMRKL

| Structure (SMILES) | MIC, E. coli NR698 (E. coli NR698; 24 hr incubation at 37 °C, outer membrane leaky mutant) | MIC, S. aureus 6538 (S. aureus 6538; 24 hr incubation at 37 °C) | MIC (E. coli NR698) | IC50 (EcSecAN68) | MIC (S. aureus 6538) | Fold by which 7b and 12a are more effective than the antibiotic (MIC) (S. aureus Mu50; S. aureus Mu50, label = antibiotic compared) | MIC (S. aureus Mu50; Staphylococcus aureus, MRSA, read-out: MIC, S. aureus Mu50) |
| --- | --- | --- | --- | --- | --- | --- | --- |
| Cc1cc(C)cc(-c2nnc(Sc3cc(Cl)nc(Sc4ccccc4)n3)[nH]2)c1 [Compound 12b, 4-Chloro-6-((5-(3,5-dimethylphenyl)-4H-1,2,4-triazol-3-yl)thio)-2-(phenylthio) pyri-midine] | >250 µM | 12.5 µM (≈ 5.32 µg/mL) | – | – | – | – | – |
| CSc1nc(Cl)cc(Sc2nnc(-c3cc(F)cc(F)c3)[nH]2)n1 [Compound 7g, 4-Chloro-6-((5-(3,5-difluorophenyl)-4H-1,2,4-triazol-3-yl)thio)-2-(methylthio) pyrimidine] | – | – | 50 µM (≈ 18.6 µg/mL) | > 100 µM | 41.6 µM (≈ 15.5 µg/mL) | – | – |
| FC(F)(F)c1cc(-c2nnc(Sc3cc(Cl)ncn3)[nH]2)cc(C(F)(F)F)c1 [Compound 9b, 4-((5-(3,5-Bis(trifluoromethyl)phenyl)-4H-1,2,4-triazol-3-yl)thio)-6-chloropyrimidine] | – | – | 35.4 µM (≈ 15.1 µg/mL) | 100 µM | 18.8 µM (≈ 8 µg/mL) | – | – |
| CSc1nc(Cl)cc(Sc2nnc(-c3cc(C(F)(F)F)cc(C(F)(F)F)c3)o2)n1 [Compound 15, 2-(3,5-Bis(trifluoromethyl)phenyl)-5-((6-chloro-2-(methylthio)pyrimidin-4-yl)thio)-1,3,4-oxadiazole] | – | – | > 100 µM | 200 µM | > 250 µM | – | – |
| FC(F)(F)c1cc(-c2n[nH]c(Oc3nc(Cl)cc(Oc4nnc(-c5cc(C(F)(F)F)cc(C(F)(F)F)c5)[nH]4)n3)n2)cc(C(F)(F)F)c1 [Compound 18] | – | – | > 250 µM | < 50 µM | 250 µM (≈ 176 µg/mL) | – | – |
| CC[C@H]1OC(=O)[C@H](C)[C@@H](O[C@H]2C[C@@](C)(OC)[C@@H](O)[C@H](C)O2)[C@H](C)[C@@H](O[C@@H]2O[C@H](C)C[C@H](N(C)C)[C@H]2O)[C@](C)(O)C[C@@H](C)C(=O)[C@H](C)[C@@H](O)[C@]1(C)O [erythromycin] | – | – | – | – | – | > 1600 fold | 1250 µg/mL (≈ 1700 µM) |
| FC(F)(F)c1cc(-c2nnc(Sc3nc(Cl)cc(Cl)n3)o2)cc(C(F)(F)F)c1 [Compound 17, 2-(3,5-Bis(trifluoromethyl)phenyl)-5-((4,6-dichloropyrimidin-2-yl)thio)-1,3,4-oxadiazole] | – | – | > 250 µM | 70 µM | 18.8 µM (≈ 8.67 µg/mL) | – | – |
| CSc1nccc(Sc2nnc(-c3cc(C)cc(C)c3)[nH]2)n1 [Compound 7d, 4-((5-(3,5-Dimethylphenyl)-4H-1,2,4-triazol-3-yl)thio)-2-(methylthio) pyrimidine] | – | – | > 250 µM | 65 µM | > 250 µM | – | – |
| Cc1cc(C)cc(-c2n[nH]c(Sc3nc(Cl)cc(Cl)n3)n2)c1 [Compound 16b, 4,6-Dichloro-2-((3-(3,5-dimethylphenyl)-1H-1,2,4-triazol-5-yl)thio) pyrimidine] | – | – | > 164 µM | – | 100 µM (≈ 35.2 µg/mL) | – | – |
| FC(F)(F)c1ccc(-c2nnc(Sc3cc(Cl)nc(Sc4ccccc4)n3)[nH]2)cc1 [Compound 12i, 4-Chloro-2-(phenylthio)-6-((5-(4-(trifluoromethyl)phenyl)-4H-1,2,4-triazol-3-yl)thio) pyrimidine] | – | – | 12.5 µM (≈ 5.82 µg/mL) | < 50 µM | 8.3 µM (≈ 3.87 µg/mL) | – | – |
| FC(F)(F)c1cc(-c2nnc(Sc3nc(Cl)cc(NCc4ccccc4)n3)[nH]2)cc(C(F)(F)F)c1 [Compound 16e, N-Benzyl-2-((3-(3,5-bis(trifluoromethyl)phenyl)-4H-1,2,4-triazol-5-yl)thio)-6-chloro-pyrimidin-4-amine] | – | – | ≥ 250 µM | > 50 µM | 50 µM (≈ 26.5 µg/mL) | – | – |
| CSc1nc(C)cc(Sc2nnc(-c3cc(C(F)(F)F)cc(C(F)(F)F)c3)[nH]2)n1 [Compound 7a, 4-((5-(3,5-Bis(trifluoromethyl)phenyl)-4H-1,2,4-triazol-3-yl)thio)-6-methyl-2-(methylthio) pyrimidine] | – | – | 33.3 µM (≈ 15 µg/mL) | – | 18.8 µM (≈ 8.49 µg/mL) | – | – |
| CSc1nccc(Sc2nnc(-c3cc(C(F)(F)F)cc(C(F)(F)F)c3)[nH]2)n1 [Compound 7c, 4-((5-(3,5-Bis(trifluoromethyl)phenyl)-4H-1,2,4-triazol-3-yl)thio)-2-(methylthio) pyrimidine] | – | – | 50 µM (≈ 21.9 µg/mL) | 95 µM | 62.5 µM (≈ 27.3 µg/mL) | – | – |
| FC(F)(F)c1cc(-c2nnc(Sc3cc(Cl)nc(Oc4ccccc4)n3)[nH]2)cc(C(F)(F)F)c1 [Compound 12c, 4-((5-(3,5-Bis(trifluoromethyl)phenyl)-4H-1,2,4-triazol-3-yl)thio)-6-chloro-2-phenoxy-pyrimidine] | – | – | 8.3 µM (≈ 4.3 µg/mL) | 9 µM | 3.1 µM (≈ 1.61 µg/mL) | – | – |
| FC(F)(F)c1cc(-c2n[nH]c(Sc3nc(Cl)cc(Cl)n3)n2)cc(C(F)(F)F)c1 [Compound 16a, 2-((3-(3,5-Bis(trifluoromethyl)phenyl)-1H-1,2,4-triazol-5-yl)thio)-4,6-dichloropyrimidine] | – | – | 12.5 µM (≈ 5.75 µg/mL) | 50 µM | 6.3 µM (≈ 2.9 µg/mL) | – | – |
| CSc1nc(Cl)cc(Sc2nnc(-c3cccc(F)c3)[nH]2)n1 [Compound 7f, 4-Chloro-6-((5-(3-fluorophenyl)-4H-1,2,4-triazol-3-yl)thio)-2-(methylthio) pyrimidine] | – | – | 200 µM (≈ 70.8 µg/mL) | < 50 µM | 175 µM (≈ 61.9 µg/mL) | – | – |
